Experimental findings from patent US6780821B1, “Substituted phenyl uracils” (Bayer Aktiengesellschaft, priority 1998, dated 2004) are described below.

Each structure is given as a SMILES string.

In general, melting point refers to the temperature of the solid-liquid transition. `COc1ccc(Oc2cc(-n3c(=O)cc(C(F)(F)F)[nH]c3=O)c(F)cc2C#N)cc1` [Example 1, 4-(3,6-dihydro-2,6-dioxo-4-trifluoromethyl-1(2H)-pyrimidin-1-yl)-5-fluoro-2-(4-methoxy-phenoxy)-benzonitrile] gave a melting point of 84 °C. Then `COc1ccc(Oc2cc(-n3c(=O)cc(C(F)(F)F)n(C)c3=O)c(F)cc2C#N)cc1` [Example 2, 4-(3,6-dihydro-2,6-dioxo-3-methyl-4-trifluoromethyl-1(2H)-pyrimidin-1-yl)-5-fluoro-2-(4-methoxy-phenoxy)-benzonitrile], with 62 °C.
